This data set in a line: in vitro dissolution testing in simulated gastric fluids, Type 1 USP dissolution apparatus. Particulars: coated trilayer tablet of the Example, 0.01 N hydrochloric acid, 100 rpm, 37° C. Type of data set: physicochemical. Here is the method: The coated tablets were subjected to in vitro dissolution testing in simulated gastric fluids (0.01 N hydrochloric acid) at 100 rpm and 37° C. using Type 1 USP dissolution apparatus. [table]

The source of these data is patent publication US8187633B2, “Controlled release coated tablets having prolonged gastric retention” (Sun Pharma Advanced Research Company Limited, priority 2005, dated 2012).

Turning to `C[C@@](Cc1ccc(O)c(O)c1)(NN)C(=O)O` [Carbidopa], the “% released” value is, setting by setting: (0 hours) 0%; (1 hour) 22%; (2 hours) 31%; (4 hours) 52%; (6 hours) 76%; (8 hours) 86%.
Turning to `N[C@@H](Cc1ccc(O)c(O)c1)C(=O)O` [levodopa], the “% released” value by setting is: (0 hours) 0%; (1 hour) 24%; (2 hours) 33%; (4 hours) 57%; (6 hours) 82%; (8 hours) 95%.
